From a melting point compilation (Tetko et al.; mined from patent text by program, amines drawn as free bases though some values may be those of a salt)

Row | SMILES | melting point
1 | COc1ccc(F)cc1OCCN1C(=O)c2ccccc2C1=O | 134 to 136 °C
2 | O=[N+]([O-])c1ccc(SC2SCC(O)C(O)C2O)cc1 (stereo not drawn) | 168 °C
3 | c1ccc(-c2ncnn2-c2ccccc2)cc1 | 85 to 87 °C
4 | OC1(c2ccc(Cl)c(Cl)c2)CCNCC1 | 144 to 146 °C
5 | Oc1ccc(Nc2nc(NCc3ccco3)nc(N3CCOCC3)n2)cc1 | 163 to 165 °C
6 | COC=C(C(=O)OC)c1ccccc1CC(=O)c1ccccc1 | 97 to 99 °C
7 | CC(=O)Nc1ccc2c(c1)NC(=O)C2=C(C)C | 93 °C
8 | CCNc1nc(Nc2ccccc2)ncc1C=CC#N | 244 to 246 °C
9 | Cn1c([N+](=O)[O-])cnc1C1=NO[C@H]2CCCCC[C@@H]12 (relative stereo) | 93 to 95 °C
10 | Nc1ncccc1C(=O)NCC1CCN(C[C@H]2COc3ccc(Br)cc3O2)CC1 | 158 to 160 °C
11 | CC(=O)OC1CCC2(C)C(CCC3=C4C(=O)CC(C(C)CCCN(C)C)C4(C)CCC32)C1 (stereo not drawn) | 122 to 124 °C
12 | O=C(Nc1ccc(C2=NOC(c3cc(Cl)cc(Cl)c3)(C(F)(F)F)C2)cc1)C(F)(F)F (stereo not drawn) | 45 to 52 °C
13 | CCCc1ccccc1OCCCCCOc1coc(C=O)cc1=O | 95 to 96 °C
14 | Cc1ccc(S(=O)(=O)Nc2cc3c(c(C(=O)O)c2)NC(c2ccccc2)CC3)cc1 (stereo not drawn) | 219 to 220 °C
15 | Cn1nc(C=O)cc1C(C)(C)CNC(=O)c1ccccc1 | 150 to 151 °C
16 | CCc1nc2c([nH]1)c(=O)n(C)c(=O)n2-c1ccc(Cl)cc1Cl | 274 to 276 °C
17 | CNC(=O)C(=NOC)c1cccc(Cl)c1COc1ccc(Sc2ccc(Cl)cc2)cn1 | 116 to 118 °C
18 | O=S(=O)(c1nc2c3ccccc3c3ccccc3c2[nH]1)C(F)(F)C(F)F | 254 to 256 °C
19 | O=C(CBr)CCCCCCN1C(=O)c2ccccc2C1=O | 83 to 86 °C
20 | O=S(=O)(NCc1ccnnc1)c1cc(Br)cs1 | 120 to 122 °C
21 | CCOC(=O)C1C(=O)c2cc(F)ccc2N=C1c1ccccc1 (stereo not drawn) | 277 to 279 °C
22 | CC(C)Cn1c(=O)[nH]c(=O)c2nc(-c3ccc(/C=C/C(=O)O)cc3)[nH]c21 | > 300 °C
23 | CCCC1=C(C(=O)OCC)C(c2ccccc2Cl)c2cnn(C(=O)OC(C)(C)C)c2N1 (stereo not drawn) | 112 to 116 °C

Row | SMILES | melting point
24 | CCc1nnc2nc(-c3cccc(C(F)(F)F)c3)ccn12 | 223 to 224 °C
25 | O=C1CC(c2cccnc2)=NN1c1ccccc1 | 102 to 103 °C
26 | CCNc1nc(Cl)c(C#N)c(NC(C)C)n1 | 160 to 165 °C
27 | O=C(C=Cc1ccc(N2CCOCC2)cc1)c1ccc2c(c1)CCCC2 | 138 to 140 °C
28 | COCCCn1c(C(=O)O)cc2c3c(c(-c4ccccc4Cl)cc21)C(=O)NC3=O | 272 to 274 °C
29 | CC(C)(C)OC(=O)N1CCN(O)CC1 | 95 to 97 °C
30 | CCC1C(=O)c2cc(OC)c(Cl)c(Cl)c2C1=O (stereo not drawn) | 153 to 154 °C
31 | O=C(O)CCC12CC(c3ccccc31)c1ccccc12 | 185 to 189 °C
32 | C[Si](C)(C)C#Cc1c(C#N)nn(-c2c(Cl)cc(OC(F)(F)F)cc2Cl)c1N | 152 °C
33 | O=C(CCl)Nc1ccc(Cl)cc1C(=O)c1ccccc1 | 119 to 120 °C
34 | O=C1c2cc(OCc3ccccn3)ccc2OCC1Oc1cccnc1 (stereo not drawn) | 155 to 156 °C
35 | Oc1ccc2[nH]cc(CCN3CCC(O)(c4ccccc4)CC3)c2c1 | 150 °C
36 | O=C(Nc1ccc(Cl)c(C(F)(F)F)c1)N1COc2cc(OCc3ccccc3)ccc21 | 135 to 136 °C
37 | CC1(C)C(=NOCc2ccccc2)C(c2ccc(S(C)(=O)=O)cc2)=C1c1ccccc1 | 56 to 61 °C
38 | CC(C)NC(=O)Nc1cccc2c1C(=O)C1(O)c3ccc(C(C)C)cc3OC21O (stereo not drawn) | 81 to 85 °C
39 | CCCN(CCC)CCc1ccc(O)c(N)c1 | 127 to 151 °C
40 | COc1cc2c(cc1Nc1ncc(Cl)c(Nc3ccccc3OCC#N)n1)CCOC(=O)N2C | 245 to 247 °C
41 | Cc1cccc2cc(C(=O)N(C)C)c(C=CNc3ccc(F)cc3)nc12 | 172 to 173 °C
42 | CCCN(CCC)C1Cc2cc(C)cc3ncn(c23)C1 (stereo not drawn) | 91 to 94 °C
43 | COC(=O)c1cnc2c(c1)CCCCC2 | 129 to 131 °C
44 | CCCSc1ccc2cc[nH]c2c1 | 54 to 55 °C
45 | COC(=O)c1ccccc1NN=Cc1ccccc1 | 66.5 to 67.5 °C
46 | COc1cc(Nc2c(C#N)cnc3cc(-c4cccc(CCN5CCOCC5)c4)c(OC)cc23)c(Cl)cc1Cl | 193 to 195 °C

Row | SMILES | melting point
47 | O=Cc1cc(Cl)ccc1Sc1ccccc1F | 85.5 to 88 °C
48 | OCCOc1cn(-c2ccc(F)cc2)c2ccc(Cl)cc12 | 118 to 120 °C
49 | Cc1ccccc1-n1c(C)nc2cscc2c1=O | 122 to 123 °C
50 | CCc1nc2c(C)cc(C)nc2n1Cc1cccc(C(=Cc2nnn[nH]2)c2ccccc2)c1 | 187 to 195 °C
51 | C[C@]12CCC(=O)N[C@@H]1CCc1cc(Sc3cccc(Cl)c3)ccc12 | 186 to 187 °C
52 | O=C1C(=Cc2ccc(Cl)cc2)N2CCC1CC2 | 108 to 110 °C
53 | CN(C)C1=NC(=O)C(Cc2cccc(-c3ccc(O)c(C45CC6CC(CC(C6)C4)C5)c3)c2)S1 (stereo not drawn) | 243 to 246 °C
54 | O=C1CC(ON(Cc2ccccc2)Cc2ccccc2)C(=O)N1C1CCCCC1 (stereo not drawn) | 75 to 77 °C
55 | CCOC(=O)C=CC(=S)c1ccc(-c2ccccc2)cc1 | 74 to 75 °C
56 | COc1ccccc1N1CCN(Cc2ccc(CC(=O)O)cc2)CC1 | 87 to 90 °C
57 | N#Cc1ncc(SCC(=O)O)nc1C#N | 141 to 143 °C
58 | COC(=O)c1sc(CBr)cc1NC(=O)Nc1ccc(C)cc1 | 157 to 158 °C
59 | O=C1Nc2ccc(-c3cc(F)cc(Br)c3)cc2C(C2CC2)(C2CC2)O1 | 228 to 229 °C
60 | CCOc1cccc(CN2CCc3cc(O)c(OC)cc3C2)c1 | 105 to 106 °C
61 | Nc1nc(N2CCOCC2)c2ncn(C3C=CC(CO)C3)c2n1 (stereo not drawn) | 165 to 167 °C
62 | CCOc1ccc(-n2c(C(F)(F)F)nn(C)c2=S)cc1 | 93 to 95 °C
63 | O=C1CCC(Cc2ccc(Br)cc2)=C1O | 144 to 145 °C
64 | CN(C)CCOC(=O)c1cc2cccc(OCc3ccccc3)c2[nH]1 | 113 to 115 °C
65 | COc1ccc(CCNC(=O)N(C)O)cc1OC | 103 to 104 °C
66 | c1cncc(CC[C@H]2CNCCN2)c1 | 104 to 110 °C
67 | COc1cc(C(=O)c2ccc(OC)c(OC)c2OC)cc(OC)c1OC | 125 to 126 °C
68 | Cc1oc(-c2ccccc2)nc1COc1ccc2cc(Cn3cc(CCC(=O)O)c(-c4ccccc4)c3)ccc2c1 | 122 to 123 °C
69 | CN(C)c1nc2cc(NC(=O)c3c(C(=O)N4CCC4)cnn3C)ccn2n1 | 240 to 241 °C

Now from value to compound:

Row | melting point | SMILES
70 | 101 to 102 °C | CCNC(=O)n1nc(Oc2ncc(C(F)(F)F)cc2Cl)c(CC)c1C
71 | 230 to 233 °C | CC(=O)OC1(C(C)=O)C(C)CC2C3CCC4=CC(=O)C=CC4(C)C3=CCC21C (stereo not drawn)
72 | 113 to 116 °C | CCOC(=O)CSc1nc(N)cc(Cl)n1
73 | 53 to 55 °C | COC(=O)c1cc(Cl)c(C)c(N)c1Cl
74 | 74 °C | Cc1noc(-c2cccc(CN3CCN(c4ccc(NC(=O)c5cccc(C)c5-c5ccc(C(C)C)cc5)cc4)CC3)c2)n1
75 | 125 to 128 °C | COCCNC(N)=Nc1ccccc1N1CCOCC1
76 | 130 to 135 °C | COc1cc(Nc2c(C#N)cnc3cc(-c4ccc(CNCCc5ccccn5)o4)ccc23)c(Cl)cc1Cl
77 | 192 to 196 °C | O=C1CC(=O)CC(c2ccc(Cl)cc2Cl)C1
78 | 138 to 140 °C | O=C(NCC1(O)CCCCCC1)c1c(Cl)ccc2nc(N3CC[C@H](NCCO)C3)ccc12
79 | 216 to 218 °C | CC1(C)CC(=O)c2c(nc(Cc3ccc(O)c(F)c3)c3[nH]c4ccccc4c23)C1
80 | 33 to 35 °C | COC(=O)CCC1CCCCCCCCCCC1=O (stereo not drawn)
81 | 139 to 140 °C | CC(=O)Nc1nc(Cl)c2ncn(COC(COC(C)=O)COC(C)=O)c2n1
82 | 123 to 125 °C | Cc1ccc(-c2c(C(=O)NCc3cc(C(F)(F)F)cc(C(F)(F)F)c3)n(C[C@H](C)CO)c(=O)c3ncccc23)cc1
83 | 186 to 187 °C | Cc1nc(-n2ccnc(C)c2=O)sc1C(=O)NCc1ccccc1
84 | 96 to 97 °C | COc1ccc(N(Cc2cc(C(C)(C)C)c(O)c(C(C)(C)C)c2)S(=O)(=O)c2cccs2)cn1
85 | 218 to 220 °C | Oc1ccc2ccc(OCc3ccc4ccccc4n3)cc2c1
86 | > 210 °C | Cc1c(F)c(Oc2cccc(C(=N)N)c2)nc(Oc2cccc(C(=N)N)c2)c1F

Row | melting point | SMILES
87 | 283 to 285 °C | O=C1CC(N2Cc3ccc(F)cc3NC2=O)C(=O)N1 (stereo not drawn)
88 | 184 to 185 °C | CC(C)(C)OC(=O)N[C@@H](Cc1ccc(-c2ccccc2)cc1)c1nnnn1CCC#N
89 | 230 to 232 °C | Cc1conc1-c1nnc2c3ccccc3c(OCc3nnccc3C(C)(C)C)nn12
90 | 86 to 87 °C | O=S(=O)(c1ccccc1)c1ncc(C(F)(F)F)cc1Cl
91 | 169 to 170 °C | CCC(=O)NC1CCc2c([nH]c3ccccc23)C1 (stereo not drawn)
92 | 50 to 52 °C | COC(=O)C(C)c1cccc(C(=O)c2ccccc2)c1 (stereo not drawn)
93 | 282 °C | Cc1ccc(N2C(=O)C(O)=C(C(=O)c3ccc(C(C)C)cc3)C2c2ccc(OC(C)C)nc2)nn1 (stereo not drawn)
94 | 61.6 to 61.8 °C | CCCCCNC(=O)NCCCCCOc1cccc2sc(NC(C)=O)nc12
95 | 125 to 128 °C | CC1CC(=O)c2cc([N+](=O)[O-])c(Br)cc2O1 (stereo not drawn)
96 | 149 °C | CC(C)Cn1c(=O)n(C)c(=O)c2c(SCCCC(=O)O)n(Cc3cccc4ccccc34)nc21
97 | 174 °C | O=C(c1ccc(Cl)cc1)c1c(Cl)nc2n(c1=O)CCS2
98 | > 230 °C | NS(=O)(=O)c1ccc(NN=C2C(=O)Nc3ccc(C(=O)NCCCn4ccnc4)cc32)cc1
99 | 110 to 112 °C | CCOC(=O)N1CCN(c2ncc(F)c(SC)n2)CC1
100 | 164 to 165 °C | COc1ccc2c(C(=S)N(C)CC(=O)O)cccc2c1C(F)(F)C(F)(F)F
101 | 202 to 204 °C | O=C(Nc1ccc(-n2nc(C(F)(F)F)cc2C(F)(F)F)cc1)c1ccno1
102 | 173 to 180 °C | CCN(CC)CC(=O)OC1CC2(C)C(C(C)=O)CCC2C2CCC3CC(O)C(SC#N)CC3(C)C12 (stereo not drawn)
103 | 144 to 146 °C | CC1(C)NCC(=O)N1CC(N)=O
